Data set [1] concerns veratrine-evoked release of glutamate. As to the kind of experiment: Inhibition of veratrine-evoked release of glutamate from rat brain slices. The data set is classed as cell-based. Particulars: P95 limits in brackets, read-out: IC₅₀(µM) Glutamate Release (P95 limits). The method, then: (§1) Compounds according to the invention were tested for their effect on veratrine-evoked release of glutamate from rat brain slices according to the protocol described in Epilepsia 27(5): 490-497, 1986. The protocol for testing for inhibition of DHFR activity was a modification of that set out in Biochemical Pharmacology Vol. 20 pp 561-574, 1971.
(§2) The results are given in Table 1, the IC₅₀ being the concentration of compound to cause 50% inhibition of (a) veratrine-evoked release of glutamate and (b) of DHFR enzyme activity.

For a further data set, the target named is T1, Rat Liver DHFR (Rattus norvegicus, UniProt Q920D2).
T1 construct: from tissue; host or cells: rat liver
T1 sequence (Q920D2 1-187): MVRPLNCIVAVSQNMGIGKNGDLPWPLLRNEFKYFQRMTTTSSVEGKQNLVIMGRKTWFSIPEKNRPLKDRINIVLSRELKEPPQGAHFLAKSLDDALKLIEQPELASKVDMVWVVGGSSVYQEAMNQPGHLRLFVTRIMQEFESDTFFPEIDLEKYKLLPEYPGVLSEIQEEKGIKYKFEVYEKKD
The experiment in a line: Inhibition of rat liver DHFR enzyme activity. The data set is classed as biochemical. The note with it: P95 limits in brackets, read-out: IC₅₀(µM) Rat Liver DHFR (P95 limits). The method, then: as §1, §2

A further data set in a line: Half-life in the rat. The data set is classed as in vivo. Particulars: statement in words.

Regarding `CC(C)Nc1ncc(-c2cc(Cl)cc(Cl)c2Cl)c(N)n1` [Compound 7, 4-Amino-2-(2-iso-propylamino)-5-(2,3,5-trichlorophenyl)pyrimidine], the IC50 is < 10 µM in data set [1] and > 100 µM on Rat Liver DHFR.
For `Nc1ncc(-c2cccc(Cl)c2Cl)c(N2CCOCC2)n1` [Compound 21, 2-Amino-5-(2,3-dichlorophenyl)-4-(N-morpholino)pyrimidine], in that order: 10 µM and > 100 µM.
For `Nc1nc(N)c(-c2cc(Cl)c(N)c(Cl)c2)c(C(F)(F)F)n1` [Compound 27, 2,4-Diamino-5-(3,5-dichloro-4-aminophenyl)-6-trifluoromethyl pyrimidine], in that order: 10 µM and 1.54 µM.
Take `C[N+]1([O-])CCN(c2nc(N)c(-c3cc(Cl)cc(Cl)c3Cl)c(C(F)(F)F)n2)CC1` [Compound 10, 4-Amino-2-(4-methyl-4-oxide-1-piperazinyl)-5-(2,3,5-trichlorophenyl)-6-trifluoromethyl-pyrimidine]: the IC50 is > 10 µM in data set [1] and > 100 µM on Rat Liver DHFR.
For `Cc1nc(N2CCN(C)CC2)nc(N)c1-c1cc(Cl)c(Cl)c(Cl)c1` [Compound 4, 4-Amino-2-(4-methyl-1-piperazinyl)-6-methyl-5-(3,4,5-trichlorophenyl)pyrimidine], in that order: < 10 µM and 100 µM.
With `Cc1nc(N)nc(N)c1-c1cc(Cl)c(N)c(Cl)c1` [Compound 26, 2,4-Diamino-5-(3,5-dichloro-4-aminophenyl)-6-methyl pyrimidine], the values for the IC50 (in data set [1]; at Rat Liver DHFR) were < 10 µM and 0.034 µM, respectively.
As for `CC(C)N1CCN(c2ncc(-c3cc(Cl)cc(Cl)c3Cl)c(N)n2)CC1` [Compound 30, 4-Amino-2-(4-isopropyl-1-piperazinyl)-5-(2,3,5-trichlorophenyl)pyrimidine], the results for the IC50 (in data set [1]; on Rat Liver DHFR) were < 10 µM and 100 µM, respectively.
For the molecule `Nc1ncc(-c2cc(Cl)c(N)c(Cl)c2)c(N)n1` [Compound 25, 2,4-Diamino-5-(3,5-dichloro-4-aminophenyl)pyrimidine], the IC50 in data set [1] is > 10 µM; on Rat Liver DHFR, 0.034 µM.
For `CN1CCN(c2nc(N)ncc2-c2cccc(Cl)c2Cl)CC1` [Compound 20, 2-Amino-5-(2,3-dichlorophenyl)-4-(4-methyl-1-piperazinyl)pyrimidine], the figures for the IC50 (in data set [1]; at Rat Liver DHFR) were 10 µM and > 100 µM, respectively.
For the molecule `CCCN1CCN(c2ncc(-c3cc(Cl)cc(Cl)c3Cl)c(N)n2)CC1` [Compound 17, 4-Amino-2-(4-n-propyl-1-piperazinyl)-5-(2,3,5-trichlorophenyl)pyrimidine], the IC50 in data set [1] was 2.17 µM; on Rat Liver DHFR it was > 100 µM.
For `C[N+]1([O-])CCN(c2ncc(-c3cc(Cl)cc(Cl)c3Cl)c(N)n2)CC1` [Compound 18, 4-Amino-2-(4-methyl-4-oxide-1-piperazinyl)-5-(2,3,5-trichlorophenyl)pyrimidine], in that order: > 10 µM and > 100 µM.
As to `Nc1nc(N2CCN(C3CC3)CC2)ncc1-c1cc(Cl)cc(Cl)c1Cl` [Compound 31, 4-Amino-2-(4-cyclopropyl-1-piperazinyl)-5-(2,3,5-trichlorophenyl)pyrimidine], the IC50 is 10 µM in data set [1] and > 100 µM on Rat Liver DHFR.
With `Nc1nc(N)c(-c2cc(Cl)cc(Cl)c2)c(C(F)(F)F)n1` [Compound 1, 2,4-Diamino-5-(3,5-dichlorophenyl)-6-trifluoromethyl pyrimidine], the IC50 was < 10 µM in data set [1] and 4.59 µM at Rat Liver DHFR.
As to `Nc1nc(N2CCN(Cc3ccccc3)CC2)ncc1-c1cc(Cl)cc(Cl)c1Cl` [Compound 22, 4-Amino-2-(4-benzyl-1-piperazinyl)-5-(2,3,5-trichlorophenyl)pyrimidine], the values for the IC50 (in data set [1]; on Rat Liver DHFR) were > 10 µM and < 100 µM, respectively.
With `Cc1nc(N)nc(N)c1-c1cc(Cl)c(Cl)c(Cl)c1` [Compound 5, 2,4-Diamino-5-(3,4,5-trichlorophenyl)-6-methyl pyrimidine], the results for the IC50 (in data set [1]; at Rat Liver DHFR) were < 10 µM and < 100 µM, respectively.
For `C[C@@H]1CN(c2ncc(-c3cc(Cl)cc(Cl)c3Cl)c(N)n2)C[C@H](C)N1` [Compound 16, cis 4-Amino-2-(3,5-dimethyl-1-piperazinyl)-5-(2,3,5-trichlorophenyl)pyrimidine], the IC50 was 10 µM in data set [1] and > 100 µM on Rat Liver DHFR.
For `Cc1nc(N)nc(N)c1-c1c(Cl)ccc(Cl)c1Cl` [Compound 2, 2,4-Diamino-6-methyl-5-(2,3,6-trichlorophenyl)pyrimidine], the IC50 in data set [1] is < 10 µM; on Rat Liver DHFR it was > 100 µM.
For the molecule `Nc1ncc(-c2cc(Cl)c(N)c(Cl)c2Cl)c(N)n1` [Compound 3, 2,4-Diamino-5-(4-amino-2,3,5-trichlorophenyl)pyrimidine], the IC50 in data set [1] is 2.5 µM; on Rat Liver DHFR, > 100 µM.
Turning to `CN(C)S(=O)(=O)c1c(Cl)cc(-c2cnc(N)nc2N)c(Cl)c1Cl` [Compound 12, 2,4-Diamino-5[4-(N',N'-dimethylsulphamoyl)-2,3,5-trichlorophenyl]pyrimidine], the values for the IC50 (in data set [1]; on Rat Liver DHFR) were < 10 µM and 13.8 µM, respectively.
For `Cc1nc(N)nc(N)c1-c1cc(Cl)cc(Cl)c1[N+](=O)[O-]` [Compound 19, 2,4-Diamino-5-(3,5-dichloro-2-nitrophenyl)-6-methyl-pyrimidine] the same measures were < 10 µM and 5.56 µM.
Take `CN1CCN(c2nc(N)c(-c3cc(Cl)cc(Cl)c3)c(C(F)(F)F)n2)CC1` [Compound 14, 4-Amino-5-(3,5-dichlorophenyl)-2-(4-methyl-1-piperazinyl)-6-trifluoromethyl pyrimidine]: the results for the IC50 (in data set [1]; on Rat Liver DHFR) were 0.137 µM and > 100 µM, respectively.
For `Nc1ncc(-c2cc(Cl)c(Cl)c(Cl)c2Cl)c(N)n1` [Compound 15, 2,4-Diamino-5-(2,3,4,5-tetrachlorophenyl)pyrimidine] the same measures were < 10 µM and > 100 µM.
With `CCN1CCN(c2ncc(-c3cc(Cl)cc(Cl)c3Cl)c(N)n2)CC1` [Compound 29, 4-Amino-2-(4-ethyl-1-piperazinyl)-5-(2,3,5-trichlorophenyl)pyrimidine], the IC50 was 2.56 µM in data set [1] and > 100 µM at Rat Liver DHFR.
Regarding `CCN(CC)c1ncc(-c2cc(Cl)cc(Cl)c2Cl)c(N)n1` [Compound 6, 4-Amino-2-diethylamino-5-(2,3,5-trichlorophenyl)pyrimidine], the IC50 in data set [1] was 10 µM; at Rat Liver DHFR it was > 100 µM.
`COCc1nc(N2CCN(C)CC2)nc(N)c1-c1cc(Cl)cc(Cl)c1` [Compound 11, 4-Amino-5-(3,5-dichlorophenyl)-6-methoxymethyl-2-(4-methyl-1-piperazinyl)pyrimidine]: the IC50 in data set [1] is < 10 µM; at Rat Liver DHFR, > 100 µM.
Regarding `CCCCN1CCN(c2ncc(-c3cc(Cl)cc(Cl)c3Cl)c(N)n2)CC1` [Compound 28, 4-Amino-2-(4-n-butyl-1-piperazinyl)-5-(2,3,5-trichlorophenyl)pyrimidine], the results for the IC50 (in data set [1]; at Rat Liver DHFR) were < 10 µM and > 100 µM, respectively.
Take `Nc1ncc(-c2cc(Cl)c(I)c(Cl)c2Cl)c(N)n1` [Compound 9, 2,4-Diamino-5-(4-iodo-2,3,5-trichlorophenyl)pyrimidine]: the IC50 in data set [1] was < 10 µM; on Rat Liver DHFR, > 100 µM.
As for `CCN1CCN(c2nc(N)c(-c3cc(Cl)cc(Cl)c3)c(C(F)(F)F)n2)CC1` [Compound 32, 4-Amino-2-(4-ethyl-1-piperazinyl)-5-(3,5-dichlorophenyl)-6-trifluoromethyl pyrimidine], the results for the IC50 (in data set [1]; at Rat Liver DHFR) were 2.43 µM and > 100 µM, respectively.
For `CN1CCN(c2ncc(-c3cc(Cl)cc(Cl)c3)c(N)n2)CC1` [Compound 8, 4-Amino-5-(3,5-dichlorophenyl)-2-(4-methyl-1-piperazinyl)pyrimidine], the IC50 in data set [1] is 0.27 µM; at Rat Liver DHFR, > 100 µM. In addition, in “Half-life in the rat”, the “half-life in the rat” value is “long half-life”.

For the origin of these results see patent publication EP0679645A1, “Pharmacologically active CNS pyridmidin compounds” (THE WELLCOME FOUNDATION LIMITED, priority 1990, dated 1991).
